Results: patent publication US20220387377A1, “(+)-CIS TETRAHYDROCANNABINOL ((+)-CIS-THC) FOR USE AS A MEDICAMENT” (GW Research Limited, priority 2019, published 2022)
“Also recorded” adds a separate entry of the source.

Assays:
[1] = test system: tonic hind limb convulsions induced by MES; experiment: Mouse supramaximal electroshock seizure (MES) test; type: in vivo; set-up: key to Significance of inhibition of tonic hindlimb seizures vs vehicle (Fisher's test): * p < 0.05; *** p < 0.001; ns: Ns: non significantly different from vehicle control (Fisher's test)
Description: The efficacy of (+)-cis-THC was tested in a mouse model of seizure, the maximal electroshock (MES) test.
Mice were administered MES (30 mA, rectangular current: 0.6 ms pulse width, 0.2 s duration, 50 Hz) via corneal electrodes connected to a constant current shock generator (Ugo Basile: type 7801) to reliably produce tonic hind limb convulsions. The number of tonic convulsions was recorded.
Sixteen mice were studied per group. The test was performed blind.
The test substance, (+)-cis-THC, was evaluated at 4 doses (10, 50, 100 and 150 mg/kg), administered i.p. 60 minutes before MES, and compared with a vehicle control group (administered under the same experimental conditions).
Valproate (positive control) was administered at 250 mg/kg i.p. 30 minutes before MES, was used as a reference substance and was compared with a vehicle group (administered i.p. 60 minutes before MES).
Data was analysed by comparing treated groups with the appropriate vehicle control using 2-tailed Fisher's Exact Probability tests (p<0.05 considered significant).

[2] = test system: withdrawal threshold on hot plate set at 52° C.; experiment: Mouse hotplate test (anti-nociception); type: in vivo
Description: The efficacy of (+)-cis-THC was tested in a mouse model of pain, the hotplate test.
Mice underwent a minimum habituation period of 7 days prior to study commencement. Naïve mice were acclimatised to the procedure room in their home cages, with food and water available ad libitum.
Animals were treated with either treatment vehicle, (+)-cis-THC at 1,15, 50,100, 125 and 150 mg/kg at 10 ml/kg i.p. or Morphine 10 mg/kg or Morphine vehicle (Saline) at 10 ml/kg i.p.
Animals were placed onto a hot plate set at 52° C. and time to withdrawal threshold (first response of lifting, licking front or hind paws or trying to escape) was taken at 1-hour post treatment, or at 0.5 hour after the positive control.
Animals were culled by a schedule 1 method, immediately after the measurement.
Data were analysed by comparing withdrawal thresholds back to Vehicle treated group

[3] = depending on the assay; cited from earlier work
[4] = 50 mg/kg I.P., 60 mins before MES
[5] = 100 mg/kg I.P., 60 mins before MES
[6] = 150 mg/kg I.P., 60 mins before MES
[7] = 10 mg/kg I.P., 0.5 hour after treatment, hot plate 52° C.
[8] = 250 mg/kg I.P., 30 mins before MES

CCCCCc1cc(O)c2c(c1)OC(C)(C)[C@@H]1CCC(C)=C[C@H]21 (relative stereo) [(+)-cis-THC, (+)-cis-delta-9-tetrahydrocannabinol]
Significance of inhibition of tonic hindlimb seizures vs vehicle (Fisher's test) ([1]; 10 mg/kg I.P., 60 mins before MES): ns | % change from vehicle in number of tonic clonic seizures after MES [1, 4]: 18.8% | Significance of inhibition of tonic hindlimb seizures vs vehicle (Fisher's test) [1, 4]: ns | % change from vehicle in number of tonic clonic seizures after MES [1, 5]: 25.0% | Significance of inhibition of tonic hindlimb seizures vs vehicle (Fisher's test) [1, 5]: ns | % change from vehicle in number of tonic clonic seizures after MES [1, 6]: 37.5% | Significance of inhibition of tonic hindlimb seizures vs vehicle (Fisher's test) [1, 6]: * (* p < 0.05) | Anti-convulsant effect in the MES model (overall) ([1]; 10, 50, 100 and 150 mg/kg i.p. 60 minutes before MES): dose-related increase in the percentage change; also recorded: significant anti-convulsant effect | Withdrawal threshold (sec) Mean +/− SEM ([2]; 1 mg/kg I.P., 1-hour post treatment, hot plate 52° C.): 10.23 ± 0.64 s | Withdrawal threshold (sec) Mean +/− SEM ([2]; 15 mg/kg I.P., 1-hour post treatment, hot plate 52° C.): 9.96 ± 0.73 s | Withdrawal threshold (sec) Mean +/− SEM ([2]; 50 mg/kg I.P., 1-hour post treatment, hot plate 52° C.): 9.80 ± 0.80 s | Withdrawal threshold (sec) Mean +/− SEM ([2]; 100 mg/kg I.P., 1-hour post treatment, hot plate 52° C.): 10.67 ± 0.77 s | Withdrawal threshold (sec) Mean +/− SEM ([2]; 125 mg/kg I.P., 1-hour post treatment, hot plate 52° C.): 11.18 ± 1.18 s | Withdrawal threshold (sec) Mean +/− SEM ([2]; 150 mg/kg I.P., 1-hour post treatment, hot plate 52° C.): 11.68 ± 0.52 s | Anti-nociceptive effect (withdrawal threshold compared to vehicle) ([2]; all doses tested, 1 to 150 mg/kg i.p.): none of the doses tested produced a significant difference; also recorded: no anti-nociceptive effect

CCCCCc1cc(O)c2c(c1)OC(C)(C)[C@@H]1CCC(C)=C[C@@H]21 [(−)-trans-THC, (−)-trans-delta-9-tetrahydrocannabinol]
Potency relative to the (+)-trans-THC isomer [3]: 6-100 times

CN1CC[C@]23c4c5ccc(O)c4O[C@H]2[C@@H](O)C=C[C@H]3[C@H]1C5 [Morphine, reference compound]
Significance of withdrawal threshold vs vehicle control [2, 7]: *** (*** p < 0.001 significant when compared to the corresponding vehicle control (Fisher's test).) | Withdrawal threshold (sec) Mean +/− SEM [2, 7]: 17.48 ± 1.08 s | Withdrawal threshold (sec) Mean +/− SEM ([2]; 10 mg/kg I.P., 0.5 hour after treatment, hot plate 52° C., listed as morphine): significant increase in the withdrawal threshold

CCCC(CCC)C(=O)O [Valproate, reference compound]
% change from vehicle in number of tonic clonic seizures after MES [1, 8]: 100.0% | Significance of inhibition of tonic hindlimb seizures vs vehicle (Fisher's test) [1, 8]: *** (*** p < 0.001) | % change from vehicle in number of tonic clonic seizures after MES ([1]; 250 mg/kg I.P., 30 mins before MES, listed as valproate): 100%
